From US20090042783A1, “APO E ANALOGS AND METHODS FOR THEIR USE” (priority 2004, published 2009)
Like-named read-outs stand apart in the source and are kept apart here. No end group written: not given here.

How the values were obtained:
in vivo = settings: male, C57B1/6, mouse, 0.4 mg/kg
BV2 microglial cells = tested on: BV2 microglial cells
Description: For suppression of inflammation profiling, each peptide analog was tested at a final concentration of 0.1, […], 1, 3, 5, 10 and 25 μM in an LPS induced BV2 microglial cell release of NO and/or TNFα. […] The modification was a biotin label on the apoE peptide (biotin-[…]-amide) which allows detection with ^125I-streptavidin (ISA, Amersham).
In overview, BV-2 cells are plated in 96 well plates in complete media and then the media is replaced the next day with serum free media or reduced serum (1%) media. […] Each concentration of peptide (standard initial concentrations are 0.1, 0.5, 1, 3, 10 and 25 μM) is added to at least 6 wells of cells (e.g. 6 wells get 0.1 μM peptide, 6 wells get 0.5 μM peptide, etc.) and data are averaged from all 6 wells. […] (2001). Cell viability is also measured with an MTT assay (Laskowitz et al. 2001).

mice = assay: Maximum tolerated dose, tail vein injection; settings: mouse, in vivo
Description: Candidate compounds are then be screened in our closed head injury model of traumatic brain injury by intravenous dosing at 30 minutes post injury. Novel compounds are initially tested at one half their maximum tolerated dose (0.5×MTD). The maximum tolerated dose (MTD) is the dose of peptide given in a tail vein injection that results in no death of mice. Death is defined as a complete lack of breathing and complete unresponsiveness to external stimuli such as tail pinch and/or toe pinch for a period of 10 or more minutes. Animals are given an initial dose of 1 mg/kg of peptide analog or non-peptide mimetic and observed continuously for 15 minutes and then at 15 minute intervals for 2 hours and then at 1 hour intervals for 4 hours more. Animals are also observed at 24 hours post injection.
The maximum tolerated dose is the maximum dose at which no animals die at any of these observation times. As an example of this procedure, the MTD is determined empirically by initially dosing groups of 3 mice at 1 mg/kg. If this dose is tolerated, then another group of 3 mice is dosed at 3 mg/kg. If this dose is tolerated, then another group of 3 mice is dosed at 9 mg/kg, etc. If, for example, 9 mg/kg is not tolerated because 1 or more animal died, then doses in-between 3 mg/kg and 9 mg/kg are investigated until the MTD is found. Once the MTD is empirically determined, it is confirmed in another group of 7 mice for a total of 10 mice being tested at the MTD and all of which must not die to confirm that this is the MTD.

[1] = tested on: BV2 murine microglial cells
Description: For Applicants preliminary work, the two most common PTDs, TAT and penetratin, were used.
Cell Culture: BV-2, a well-characterized murine microglial cell line (Bochinni, 1992), is cultured in high glucose content DMEM supplemented with 1% penicillin/streptomycin, 10% fetal calf serum, 1% nonessential amino acids, and 1% sodium pyruvate. Cells are grown to confluency; trypsinized; spun down; resuspended in serum-free OptiMEM containing 1% N2 supplement, 1% penicillin/streptomycin, 1% nonessential amino acids, and 1% sodium pyruvate; and plated at a concentration of 20,000 cells/well to remove any nonadherent cells and serum.
Supernatant is collected 24 and/or 48 h after LPS stimulation and assayed for nitrite.
Quantification of Nitric Oxide (NO): Accumulation of nitrite (stable end product of NO production) in the medium is measured by colometric Griess reagent system (Promega); the absorbance is determined at 540 nm.
Cell Viability Assay: Cell viability is measured using a nonradioactive cell viability assay (cell titer 96 AQ, Promega). The assay measures the bioreduction of MTS (3-(4,5-dimethylthiazole-2-)-5-(3-carboxymethoxyphenyl)-2-(4-sulfophenyl)-2H-tetrazolium by viable cells into formazan. The absorbance of the calorimetric assay is measured at λ 490 nm. Viability is assessed and used to normalize the nitrite data.

[2] = tested on: C57BL/6J mice with MOG-induced EAE; assay: MOG-induced experimental autoimmune encephalomyelitis (EAE); settings: preliminary data
Description: EAE was induced in mice following the method of Feinstein et al. (Feinstein, Galea, et al. 2002) 1) two s.c. injections, one on each flank of the hind legs with 300 μg MOG35-55 peptide in 0.1 ml PBS emulsified in an equal volume of CFA containing 5 mg/ml of Mycobacterium tuberculosis H37RA (Difco, St. Louis, Mo.) were given on Day 0.2) Pertussis toxin (200 ng per mouse in 0.1 ml PBS) was given i.p. immediately and 48 h after first MOG injection. 3) a booster immunization with an identical emulsion, route of administration and location was given on Day 7.
Following the encephalitogenic challenge, mice were monitored daily and neurological impairment was evaluated by clinical score (C.S.) as follows: 0, no clinical signs of EAE; 1, limp tail; 2, flaccid tail and abnormal gait (ataxia and/or paresis of hind limbs); 3, severe hind limb paresis; 4, complete paralysis with hind body; and 5, moribund or death.
Mice were anesthetized, bled, and perfused with 25 ml PBS and 25 ml 4% paraformaldehyde in buffered PBS. Brains and spinal cords were dissected out from 3 mice with a clinical score of 0 and another 3 mice with a clinical score of 4 on day 30 post-immunization. Tissues were post-fixed in 4% paraformaldehyde for another 24 h and then stored in 1×PBS with 0.1% sodium azide. Fixed tissues were embedded in paraffin and 5 μm thick sections were cut from brain, the brain stem and three different levels of spinal cord (cervical, thoracic and lumbar). Sections were stained with hematoxylin/eosin for evidence of inflammation and Luxol fast blue (for demyelination). The severity of inflammation was evaluated using the following criteria: 0, no inflammation; 1, cellular infiltrates only in the perivascular areas and meninges; 2, mild cellular infiltrates only in parenchyma (1-10/section); 3, moderate cellular infiltrates in parenchyma (11-100/section); 4, marked cellular infiltrates in parenchyma (>100 section).
In total, 10 doses of peptides were given.

[3] = tested on: mice receiving total body irradiation; settings: cited from earlier work
RAW 264.7 macrophages [4] = assay: NO production and iNOS mRNA in C. rodentium-stimulated macrophages; type: cell-based, mouse
From the text: RAW 264.7 cells were stimulated with French-pressed lysates of C. rodentium at a multiplicity of infection of 100. […] B, RT-PCR for iNOS.
We used bacterial lysates to more closely mimic the bacterial products to which lamina propria macrophages are likely to be exposed.

peritoneal macrophages = assay: Peritoneal macrophage production of NO, TNFα and IL-6 induced by MOG or LPS/IFN-γ; type: cell-based, mouse
Description: For this purpose, three mice with clinical scores of 0 and three with clinical scores of 4 at 30 dpi (day post-immunization) were used for preparation of peritoneal macrophage cultures. Macrophages were collected after peritoneal lavage with 3 ml heparin (10 U/ml)-containing PBS and then seeded to 96-well microplates at a density of 1×10^5 cells/well in Dulbecco's MEM containing 10% fetal bovine serum, 2 mM L-glutamine serum, 1% HEPES and 100 U/ml penicillin and 100 μg/ml streptomycin, 37° C. in a humidified incubator with 5% CO2. 24 h later, the serum-containing medium was removed and cells were washed once with serum-free medium. To examine the differentiated response of macrophage to immune stimulators, macrophages obtained from mice with clinical scores of 0 or 4 were exposed to serial concentrations of IFN-γ/LPS or MOG35-55 peptide. […] Media were collected at 45 h or 72 h, and analyzed by ELISA for […] and IL-6 or for nitric oxide (NO) as detailed below.
As the stable end product of nitric oxide release, nitrite levels in conditioned media were determined by injecting 50 μl media sample into a Sievers 280 NOA analyzer (Boulder, Colo., USA). Total protein (μg/well) was measured using the BCA method (Pierce, Rockford, Ill., USA) according to manufacturer's instructions with BSA as standard. BCA values were measured using a Molecular Devices Thermomax Microplate Reader (Menlo Park, Calif., USA) at OD562. Nitric oxide levels ere expressed as μM NO2—/mg protein.
For cytokine assays, supernatants were collected 45 h after […]/LPS or MOG treatments and quantitative ELISAs using selected pairs of monoclonal antibodies (as recommended by the manufacturer Biosource) were performed to quantify the cytokines, TNF-α and IL-6. For TNF-α ELISA, 96-well ELISA plates were pre-coated with rabbit anti-mouse polyclonal to TNF-α as capture antibodies for 18 h at 2-8° C. and then blocked for 2 h at room temperature. The wells were incubated with samples or mouse TNF-α standards. Following incubation for 2 h at room temperature, the wells were washed, after which hamster anti-mouse TNF-α biotinylated secondary antibody and horseradish peroxidase conjugate were added. Tetramethylbenzidine (TMB) solution was then added, and peroxidase-catalyzed color change was stopped by acidification with 2 NH2SO4. The plates were scanned at wavelength 450 nm and the absorbance were measured. The results are expressed as the mean concentration (pg/ml) ±SEM.
For IL-6 ELISA, rat anti-mouse monoclonal to IL-6 was used as capture antibody, and biotinylated rat anti-mouse monoclonal to IL-6 as detection antibody. The rest of procedure is identical to that of TNF-α ELISA.

RAW 264.7 macrophages [5] = tested on: RAW 264.7 macrophages
[6] = tested on: mice with traumatic brain injury; assay: Closed head injury model of traumatic brain injury (rotorod, Morris Water Maze)
Description: C57Bl/6J male mice (The Jackson Laboratory, ME), 12-16 weeks of age and weighing 24-32 g, are used for all experiments. Anesthesia is first induced with isoflurane in 30% O2/balance N2. The trachea is intubated and the lungs mechanically ventilated with 1.6% isoflurane in 30% O2/balance N2. Temperature is monitored with a rectal probe and maintained at 36.5° C. with a heat lamp. The right internal jugular vein is cannulated with silicone catheter. […] Intubated animals are then placed prone on a molded acrylic cast (FIG. 6A). […] The scalp is incised and the skull exposed. A concave 3 mm metallic disc is secured to the skull surface (with the concave surface in juxtaposition to the skull) by an adhesive. […] The disc is placed directly midline just caudal to bregma (FIG. 6B). […] The mice are positioned in a stereotactic frame. Although the stereotactactic frame helps to stabilize the animal and exactly calibrate the vertical displacement on impact (3 mm), ear bars are not used due to a much higher rate of skull fracture (or brainstem injury if the head rotates around the axis of the ear bars during impact). The piston is discharged at 6.8±0.2 m/s so as to impact the skull in the acrylic mold to move a maximum of approximately 3 mm (FIG. 6C). Inspired isoflurane is decreased to 0.7% immediately after impact. The scalp was infiltrated with lidocaine and closed with suture. Ophthalmic ointment was applied to the eyes for protection. The incidence of skull fracture is low (approximately 10%), as the metal disk helps to diffuse the impact, and the absence of ear bar fixation allows for displacement of the entire head. Mice were excluded if a depressed skull fracture was observed (incidence of approximately 10%). The animals are allowed to recover spontaneous ventilation then extubated. […] In these mice, arterial blood pressure, blood gas and glucose measurement at baseline, immediately after injury, and 15 minutes after injury are monitored during the recovery period.
Briefly, baseline performance on rotorod is established before the mice are intubated, the skin over the scalp reflected and a controlled cortical impact from a pneumatic impactor given on the midline. The skin is closed with surgical clips and the animals are constantly monitored until awake from anesthesia and then hourly for the next 4 hours. […] Performance on rotorod is tested at 24 hours post impaction and then every day for 5 days and data is presented as described. Groups of 12 mice are used for each compound at 0.5×MTD. […] Novel peptides and non-peptide analogs are also given by tail vein injection.
Daily Rotarod (RR) testing was used to assess short term motor and cerebellar deficit following head injury (Hamm et al., 1994). Mice were held by their tails and placed on the RR facing the wall by using gentle swinging motion while running in a constant speed mode.

[7] = biological target: cellular receptor bound by the apoE 133-149 peptide (on cells, 250,000 cells per well); assay: competition with biotinylated apoE 133-149 for binding to whole cells (250,000 cells/well, 4 C), 125I-streptavidin detection

CC(=O)N[C@@H](CC(C)C)C(=O)N[C@@H](CCCNC(=N)N)C(=O)N[C@H](C(=O)N[C@@H](CCCNC(=N)N)C(=O)N[C@@H](CC(C)C)C(=O)N[C@@H](C)C(=O)N[C@@H](CO)C(=O)N[C@@H](Cc1c[nH]cn1)C(=O)N[C@@H](CC(C)C)C(=O)N[C@@H](CCCNC(=N)N)C(=O)N[C@@H](CCCCN)C(=O)N[C@@H](CC(C)C)C(=O)N[C@@H](CCCNC(=N)N)C(=O)N[C@@H](CCCCN)C(=O)N[C@@H](CCCNC(=N)N)C(=O)N[C@@H](CC(C)C)C(=O)N[C@@H](CC(C)C)C(N)=O)C(C)C [COG133]
half-life (in vivo): 8 min
EC50 (BV2 microglial cells; read-out: EC50 (50% reduction of NO or TNFα release), LPS induced BV2 cells): 3500 nM
IC50 (BV2 microglial cells; read-out: IC50, inhibition of nitric oxide release, BV2 cells, LPS for 40 hours, approximate): ~2000 nM
Therapeutic Index (ratio of the MTD to the MED) (mice): 3.5
IC50 ([1]; read-out: IC50 NO, 50% suppression of NO production, normalized on cell viability): 25000 nM
Tolerability in mice with EAE [2]: well tolerated

NCCCNCCSP(=O)(O)O [amifostene, reference compound]
Dose reduction factor ([3]; 30 days post-irradiation, given immediately before irradiation (Hall 2000)): 2.7

Ac-RQIKIWFQNRRMKWKKLRVRLASHLRKLRKRLL-NH2 (N-terminus and C-terminus assumed) [COG4502]
NO production (nitrite levels) in macrophage supernatants (RAW 264.7 macrophages [4]; C. rodentium lysates, COG1410 2 μM, COG4502 0.1-5 μM): inhibition of NO production
iNOS mRNA expression (RAW 264.7 macrophages [4]; RT-PCR): significant, concentration-dependent inhibition of iNOS mRNA expression
Inhibition of cytokine production induced by MOG or LPS/IFN-γ (peritoneal macrophages): significantly more powerful in inhibiting cytokine production
Production of NO, TNFα and IL-6 at 5 μM (peritoneal macrophages; 5 μM, MOG or LPS/IFN-γ): inhibited the production of NO, TNFα and IL-6 completely
TNFa and IL6 release from peritoneal macrophages (peritoneal macrophages; gamma interferon and LPS, 24 hours): dose dependent inhibition of TNFa release and a dose dependent inhibition of IL6 release
Suppression of NO and/or TNFα release from LPS treated BV2 cells (BV2 microglial cells): much better than the COG133 parent
IC50 (BV2 microglial cells; 40 h): ~10 nM
IC50 [1]: 700 nM
Increase in potency relative to COG133 [1]: 40 fold
Suppression of LPS-stimulated nitrite secretion [1]: significantly more potent than COG133
Suppression of NO production at 25 μM ([1]; 25 μM): 100%
Increase of efficacy of COG133 when conjugated to penetratin ([1]; FIG. 18 vs FIG. 16): about 100 fold
IC50 ([1]; read-out: Dose for fifty percent suppression of LPS-stimulated nitrite secretion, FIG. 18): ~30 nM
IC50 ([1]; read-out: IC50 TNFα, in vitro): 1100 nM
Concentration at which cell toxicity was noted (RAW 264.7 macrophages [5]): 10 µM
Concentration range where toxicity did not occur (RAW 264.7 macrophages [5]): 0.1 to 5 µM
Rotorod performance, conjugates given at varying times following TBI ([6]; FIG. 20: 90 minutes following TBI): can increase the therapeutic window of COG133
In vivo Therapeutic window time expanded? ([6]; mouse, in vivo): Yes; tested at 4 X

B1: rIL11: rIL11 given to irradiated mice (Van der Meeren et al. 2002) (protein, UniProt P20809 22-199, looked up)
Interleukin-11: PGPPPGPPRVSPDPRAELDSTVLLTRSLLADTRQLAAQLRDKFPADGDHNLDSLPTLAMSAGALGALQLPGVLTRLRADLLSYLRHVQWLRRAGGSSLKTLEPELGTLQARLDRLLRRLQLLMSRLALPQPPPDPPAPPLAPPSSAWGGIRAAHAILGGLHLTLDWAVRGLLLLKTRL
Survival rate at 30 days post-TBI ([3]; 8 Gy, 2 hour delay, every day for 5 days (Van der Meeren et al. 2002)): 74%

LRVRLASHLRKLRKRLL (not fully specified) [apoE 133-149 peptide (COG133), unlabeled]
IC50 [7]: 4000 nM
